Species on record: Rattus norvegicus
Experiment: Open TG-GATES - Regimen: Single
Assay type: toxicity, organism-based, Sprague-Dawley
Design: regimen Single, gender Male, age 6 weeks
Conditions: in vivo, po, route gavage; for Bas / Eos / Fbg / Hb / Ht / Lym / MCH / MCHC / MCV / Mono / Neu / PT / Plat / RBC / Ret / WBC: tissue Blood; for KIDNEY_L / KIDNEY_R / KIDNEY_TOTAL: tissue Kidney; for LIVER: tissue Liver; for ALP / ALT / AST / BUN / CRE / Ca / Cl / DBIL / GLC / IP / K / LDH / Na / PL / RALB / TBIL / TC / TG / TP / gamma-GTP: tissue Plasma
[1] = 150 mg/kg, 3 h, dose level Middle

SMILES: CN(C)CCCN1c2ccccc2Sc2ccc(Cl)cc21 [CHLORPROMAZINE]
- TERMINAL_BW (45 mg/kg, 9 h, dose level Low): 211.4 g
- Bas (45 mg/kg, 9 h, dose level Low): 0%
- Eos (45 mg/kg, 9 h, dose level Low): 1%
- Fbg (45 mg/kg, 9 h, dose level Low): 219.2 mg/dL
- Hb (45 mg/kg, 9 h, dose level Low): 12.8 g/dL
- Ht (45 mg/kg, 9 h, dose level Low): 37.4%
- Lym (45 mg/kg, 9 h, dose level Low): 76.6%
- MCH (45 mg/kg, 9 h, dose level Low): 21.4 pg
- MCHC (45 mg/kg, 9 h, dose level Low): 34.1%
- MCV (45 mg/kg, 9 h, dose level Low): 62.7 fL
- Mono (45 mg/kg, 9 h, dose level Low): 2.8%
- Neu (45 mg/kg, 9 h, dose level Low): 18.8%
- PT (45 mg/kg, 9 h, dose level Low): 12.3 s
- Plat (45 mg/kg, 9 h, dose level Low): 128.5 x10_4/uL
- RBC (45 mg/kg, 9 h, dose level Low): 596.6 x10_4/ul
- Ret (45 mg/kg, 9 h, dose level Low): 8%
- WBC (45 mg/kg, 9 h, dose level Low): 53.8 x10_2/uL
- KIDNEY_L (45 mg/kg, 9 h, dose level Low): 0.9 g
- KIDNEY_R (45 mg/kg, 9 h, dose level Low): 0.9 g
- KIDNEY_TOTAL (45 mg/kg, 9 h, dose level Low): 1.8 g
- LIVER (45 mg/kg, 9 h, dose level Low): 9.1 g
- ALP (45 mg/kg, 9 h, dose level Low): 807.4 IU/L
- ALT (45 mg/kg, 9 h, dose level Low): 28.2 IU/L
- AST (45 mg/kg, 9 h, dose level Low): 63.2 IU/L
- BUN (45 mg/kg, 9 h, dose level Low): 9.4 mg/dL
- CRE (45 mg/kg, 9 h, dose level Low): 0.4 mg/dL
- Ca (45 mg/kg, 9 h, dose level Low): 10.4 mg/dL
- Cl (45 mg/kg, 9 h, dose level Low): 106.4 meq/L
- DBIL (45 mg/kg, 9 h, dose level Low): 0.07 mg/dL
- GLC (45 mg/kg, 9 h, dose level Low): 263.8 mg/dL
- IP (45 mg/kg, 9 h, dose level Low): 9.6 mg/dL
- K (45 mg/kg, 9 h, dose level Low): 3.6 meq/L
- LDH (45 mg/kg, 9 h, dose level Low): 215.6 IU/L
- Na (45 mg/kg, 9 h, dose level Low): 143.4 meq/L
- PL (45 mg/kg, 9 h, dose level Low): 147.2 mg/dL
- RALB (45 mg/kg, 9 h, dose level Low): 3.4 g/dL
- TBIL (45 mg/kg, 9 h, dose level Low): 0.1 mg/dL
- TC (45 mg/kg, 9 h, dose level Low): 84.4 mg/dL
- TG (45 mg/kg, 9 h, dose level Low): 14 mg/dL
- TP (45 mg/kg, 9 h, dose level Low): 5.6 g/dL
- gamma-GTP (45 mg/kg, 9 h, dose level Low): 0.8 IU/L
- TERMINAL_BW (45 mg/kg, 24 h, dose level Low): 211.2 g
- Bas (45 mg/kg, 24 h, dose level Low): 1%
- Eos (45 mg/kg, 24 h, dose level Low): 0.8%
- Fbg (45 mg/kg, 24 h, dose level Low): 213.6 mg/dL
- Hb (45 mg/kg, 24 h, dose level Low): 14.3 g/dL
- Ht (45 mg/kg, 24 h, dose level Low): 42%
- Lym (45 mg/kg, 24 h, dose level Low): 77.8%
- MCH (45 mg/kg, 24 h, dose level Low): 21.7 pg
- MCHC (45 mg/kg, 24 h, dose level Low): 33.9%
- MCV (45 mg/kg, 24 h, dose level Low): 64.1 fL
- Mono (45 mg/kg, 24 h, dose level Low): 2.4%
- Neu (45 mg/kg, 24 h, dose level Low): 17.6%
- PT (45 mg/kg, 24 h, dose level Low): 11.7 s
- Plat (45 mg/kg, 24 h, dose level Low): 137.7 x10_4/uL
- RBC (45 mg/kg, 24 h, dose level Low): 656.8 x10_4/ul
- Ret (45 mg/kg, 24 h, dose level Low): 7.5%
- WBC (45 mg/kg, 24 h, dose level Low): 87 x10_2/uL
- KIDNEY_L (45 mg/kg, 24 h, dose level Low): 1 g
- KIDNEY_R (45 mg/kg, 24 h, dose level Low): 1 g
- KIDNEY_TOTAL (45 mg/kg, 24 h, dose level Low): 2 g
- LIVER (45 mg/kg, 24 h, dose level Low): 9.2 g
- ALP (45 mg/kg, 24 h, dose level Low): 861 IU/L
- ALT (45 mg/kg, 24 h, dose level Low): 35.8 IU/L
- AST (45 mg/kg, 24 h, dose level Low): 84 IU/L
- BUN (45 mg/kg, 24 h, dose level Low): 21.8 mg/dL
- CRE (45 mg/kg, 24 h, dose level Low): 0.5 mg/dL
- Ca (45 mg/kg, 24 h, dose level Low): 10.7 mg/dL
- Cl (45 mg/kg, 24 h, dose level Low): 104.6 meq/L
- DBIL (45 mg/kg, 24 h, dose level Low): 0.062 mg/dL
- GLC (45 mg/kg, 24 h, dose level Low): 217.8 mg/dL
- IP (45 mg/kg, 24 h, dose level Low): 8.9 mg/dL
- K (45 mg/kg, 24 h, dose level Low): 3.8 meq/L
- LDH (45 mg/kg, 24 h, dose level Low): 239.4 IU/L
- Na (45 mg/kg, 24 h, dose level Low): 144 meq/L
- PL (45 mg/kg, 24 h, dose level Low): 132.2 mg/dL
- RALB (45 mg/kg, 24 h, dose level Low): 3.7 g/dL
- TBIL (45 mg/kg, 24 h, dose level Low): 0.1 mg/dL
- TC (45 mg/kg, 24 h, dose level Low): 70.8 mg/dL
- TG (45 mg/kg, 24 h, dose level Low): 76.4 mg/dL
- TP (45 mg/kg, 24 h, dose level Low): 5.9 g/dL
- gamma-GTP (45 mg/kg, 24 h, dose level Low): 1 IU/L
- TERMINAL_BW [1]: 221.2 g
- Bas [1]: 0%
- Eos [1]: 0.8%
- Fbg [1]: 211.2 mg/dL
- Hb [1]: 12.6 g/dL
- Ht [1]: 37.6%
- Lym [1]: 73.4%
- MCH [1]: 21.3 pg
- MCHC [1]: 33.5%
- MCV [1]: 63.4 fL
- Mono [1]: 2.6%
- Neu [1]: 22.2%
- PT [1]: 12.4 s
- Plat [1]: 120.3 x10_4/uL
- RBC [1]: 593.4 x10_4/ul
- Ret [1]: 8.4%
- WBC [1]: 49.8 x10_2/uL
- KIDNEY_L [1]: 0.9 g
- KIDNEY_R [1]: 0.9 g
- KIDNEY_TOTAL [1]: 1.8 g
- LIVER [1]: 9.9 g
- ALP [1]: 942 IU/L
- ALT [1]: 33.4 IU/L
- AST [1]: 71.4 IU/L
- BUN [1]: 10.8 mg/dL
- CRE [1]: 0.4 mg/dL
- Ca [1]: 10.9 mg/dL
- Cl [1]: 105.6 meq/L
- DBIL [1]: 0.062 mg/dL
- GLC [1]: 229.6 mg/dL
- IP [1]: 10.3 mg/dL
- K [1]: 3.8 meq/L
- LDH [1]: 212.2 IU/L
- Na [1]: 145.2 meq/L
- PL [1]: 132.2 mg/dL
- RALB [1]: 3.4 g/dL
- TBIL [1]: 0.1 mg/dL
- TC [1]: 69.8 mg/dL
- TG [1]: 61.8 mg/dL
- TP [1]: 5.4 g/dL
- gamma-GTP [1]: 1 IU/L

From ChEMBL document CHEMBL3885861, “Open TG-GATES”
